Here are results for ten compounds from patent publication US8859557B2, “Substituted oxindole derivatives and their use as vasopressin receptor ligands” (Abbott GmbH & Co. KG, priority 2006, dated 2014).

Structures are written as SMILES. pKi: −log10 of the molar value.

The target in data set [1] is human vasopressin V1a receptor (Homo sapiens, UniProt P37288). Nature of the data set: Vasopressin V1a receptor binding assay. Conditions: selectivity for V1b over V1a, quotient of Ki values.
The target of data set [2] is T1, human vasopressin V1b receptor (Homo sapiens, UniProt P47901).
T1 construct: expressed in transfected cells; host or cells: CHO-K1 (cell line hV1b-3H2_CHO), membrane preparation
T1 sequence (P47901 1-424): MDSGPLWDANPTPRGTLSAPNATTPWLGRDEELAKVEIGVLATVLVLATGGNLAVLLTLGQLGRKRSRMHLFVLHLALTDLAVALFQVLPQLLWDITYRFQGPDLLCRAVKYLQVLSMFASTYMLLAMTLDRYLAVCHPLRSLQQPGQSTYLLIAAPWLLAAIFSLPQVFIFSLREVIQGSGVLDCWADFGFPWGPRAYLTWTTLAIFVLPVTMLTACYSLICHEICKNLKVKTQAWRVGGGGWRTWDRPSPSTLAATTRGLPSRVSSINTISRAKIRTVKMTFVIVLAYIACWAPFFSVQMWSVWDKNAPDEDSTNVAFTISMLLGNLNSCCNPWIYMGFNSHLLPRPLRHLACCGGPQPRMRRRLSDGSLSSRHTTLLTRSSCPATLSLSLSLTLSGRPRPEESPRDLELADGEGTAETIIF
Kind of data set: Vasopressin V1b receptor binding assay. As to conditions: displacement of 3H-AVP, membranes of CHO-K1 cells with human V1b receptor. The protocol:
Methods for Determining the Biological Activity Vasopressin V1b Receptor Binding Assay: Substances:
This series of DMSO predilutions was diluted 1:10 with assay buffer. The substance concentration was again diluted 1:5 in the assay mixture (2% DMSO in the mixture).
All determinations were carried out as triplicate determinations.
Background: Displacement assays read how much labelled ligand stays bound in the presence of the test substance.

Data set [3] concerns the target T2, recombinant human oxytocin receptors (Homo sapiens, UniProt P30559).
T2 construct: expressed in transfected cells; host or cells: HEK-293, transient expression; lysed and homogenized cells
T2 sequence (P30559 1-389): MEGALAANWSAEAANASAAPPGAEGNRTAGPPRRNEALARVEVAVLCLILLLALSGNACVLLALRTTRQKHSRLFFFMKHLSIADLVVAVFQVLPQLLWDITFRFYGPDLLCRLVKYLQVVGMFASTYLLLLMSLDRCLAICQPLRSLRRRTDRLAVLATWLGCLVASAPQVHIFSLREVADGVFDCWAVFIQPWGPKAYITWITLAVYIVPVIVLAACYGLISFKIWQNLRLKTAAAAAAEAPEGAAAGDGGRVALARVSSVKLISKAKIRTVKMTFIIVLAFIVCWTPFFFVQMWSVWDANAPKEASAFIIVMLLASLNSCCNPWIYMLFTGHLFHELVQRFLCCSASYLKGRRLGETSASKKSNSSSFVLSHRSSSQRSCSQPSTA
Kind of data set: Oxytocin receptor binding assay. As to conditions: selectivity for V1b over oxytocin receptor, quotient of Ki values. The protocol:
Oxytocin Receptor Binding Assay
Confluent HEK-293 cells with transiently expressing recombinant human oxytocin receptors were centrifuged at 750×g and at room temperature for 5 minutes. The residue was taken up in ice-cold lysis buffer (50 mM Tris-HCl, 10% glycerol, pH 7.4 and Roche Complete Protease Inhibitor) and subjected to an osmotic shock at 4° C. for 20 minutes. The lyzed cells were then centrifuged at 750×g and at 4° C. for 20 minutes, the residue was taken up in incubation buffer, and aliquots of 10^7 cells/ml were prepared. The aliquots were frozen at −80° C. until used.
On the day of the experiment, the cells were thawed, diluted with incubation buffer and homogenized using a Multipette Combitip (Eppendorf, Hamburg). […] The nonspecific binding was determined with 10^−6 M oxytocin (Bachem AG, H2510). Determinations in triplicate were set up. Bound and free radioligand were separated by filtration under vacuum with Whatman GF/B glass fibre filters using a Skatron cell harvester 7000. The bound radioactivity was determined by liquid scintillation measurement in a Tricarb beta counter, model 2000 or 2200CA (Packard).

The nature of data set [4]: Determination of the microsomal half-life / microsomal clearance (human). The format is in vitro ADME. Conditions: pH 7.4; human liver microsomes, 0.5 μM test substance, 0.25 mg microsomal protein/ml; read-out: Human Mikrosomal Clearance. On the procedure:
The metabolic stability of a compound can be determined, for example, by incubating a solution of this compound with liver microsomes from particular species (for example rat, dog or human) and determining the half-life of the compound under these conditions (RS Obach, Curr Opin Drug Discov Devel. 2001, 4, 36-44). It is possible to conclude from an observed larger half-life that the metabolic stability of the compound is improved. The stability in the presence of human liver microsomes is of particular interest since it makes it possible to predict the metabolic degradation of the compound in the human liver. Compounds with increased metabolic stability (determined in the liver microsome test) are therefore probably also degraded more slowly in the liver. The slower metabolic degradation in the liver can lead to higher and/or longer-lasting concentrations (effective levels) of the compound in the body, so that the elimination half-life of the compounds according to the invention is increased. Increased and/or longer-lasting effective levels may lead to a better efficacy of the compound in the treatment or prophylaxis of various vasopressin-dependent diseases. An improved metabolic stability may additionally lead to an increased bioavailability after oral administration, because the compound is subjected, after being absorbed in the intestine, to less metabolic degradation in the liver (so-called first pass effect). An increased oral bioavailability may, because the concentration (effective level) of the compound is increased, lead to a better efficacy of the compound after oral administration.
Determination of the Microsomal Half-Life:
The metabolic stability of the compounds of the invention was determined in the following assay.
The test substances are incubated in a concentration of 0.5 μM as follows:
0.5 μM test substance is preincubated together with liver microsomes of various species (rat, human or other species) (0.25 mg of microsomal protein/ml) in 0.05M potassium phosphate buffer pH 7.4 in microtitre plates at 37° C. for 5 min. The reaction is started by adding NADPH (1 mg/ml). 50 μl aliquots are taken after 0, 5, 10, 15, 20 and 30 min, and the reaction is stopped immediately with the same volume of acetonitrile and cooled down. The samples are frozen until analyzed. Using MSMS, the remaining concentration of undegraded test substance is determined. From the […] of the test substance signal/time unit curve, the half-life (T½) is determined, where the half-life of the test substance can be calculated, assuming first order kinetics, from the decrease in the concentration of the compound with time. The microsomal clearance (mCl) is calculated as mCl=In2/T½/(content of microsomal protein in mg/ml)×1000 [ml/min/mg] (modified according to the literature references: Di, The Society for Biomoleculaur Screening, 2003, 453-462; Obach, DMD, 1999 vol 27. N 11, 1350-1359).
On the technique in general: Microsomes from liver hold many membrane-bound enzymes, among them those of drug oxidation.

Usually pKi stands for −log10 of the Ki, conventionally taken in molar units.

Chain of human vasopressin V1a receptor (P37288 whole entry): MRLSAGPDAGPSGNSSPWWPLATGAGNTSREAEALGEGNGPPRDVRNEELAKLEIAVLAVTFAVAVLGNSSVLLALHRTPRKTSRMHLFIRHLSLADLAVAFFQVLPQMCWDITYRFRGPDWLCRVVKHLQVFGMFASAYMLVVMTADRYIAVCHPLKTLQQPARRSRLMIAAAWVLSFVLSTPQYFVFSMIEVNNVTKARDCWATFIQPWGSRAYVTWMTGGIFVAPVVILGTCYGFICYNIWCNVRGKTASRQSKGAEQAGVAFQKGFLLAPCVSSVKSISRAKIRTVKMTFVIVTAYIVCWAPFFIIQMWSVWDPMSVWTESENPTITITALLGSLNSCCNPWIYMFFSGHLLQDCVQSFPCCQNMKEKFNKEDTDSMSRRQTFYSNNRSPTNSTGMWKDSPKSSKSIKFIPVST

In the case of `CCOc1ncccc1C1(NC(=O)N2CCC(N3CCN(C)CC3)CC2)C(=O)N(S(=O)(=O)c2ccccc2OC)c2ccc(C#N)cc21` (racemic) [Example 32, N-[5-Cyano-3-(2-ethoxypyridin-3-yl)-1-[(2-methoxyphenyl)sulphonyl]-2-oxo-2,3-dihydro-1H-indol-3-yl]-4-(4-methylpiperazin-1-yl)piperidine-1-carboxamide], the “Ki(h-V1a)/Ki(h-V1b)” value in data set [1] is “+ (15-50)”. Also, the pKi in data set [2] is 7.30 to 8.00. In addition, the “Ki(h-OT)/Ki(h-V1b)” value in data set [3] is listed as “+++ (>50)”.
Consider `CCOc1ncccc1C1(NC(=O)N2CCN(C3CCN(C)CC3)CC2)C(=O)N(S(=O)(=O)c2ccccc2OC)c2ccc(C#N)cc21` (racemic) [Example 2, N-{5-Cyano-3-(2-ethoxypyridin-3-yl)-1-[(2-methoxyphenyl)sulphonyl]-2-oxo-2,3-dihydro-1H-indol-3-yl}-4-(1-methylpiperidin-4-yl)piperazine-1-carboxamide], for which, in data set [1], the “Ki(h-V1a)/Ki(h-V1b)” value was “+++ (>100)”. Besides, the negative-log Ki (pKi) in data set [2] is 7.30 to 8.00. For the same compound, the “Ki(h-OT)/Ki(h-V1b)” value in data set [3] is on record as “+++ (>50)”.
Consider `CCOc1ncccc1C1(NC(=O)N2CCC(N3CCN(C)CC3)CC2)C(=O)N(S(=O)(=O)c2ccccc2)c2ccc(C#N)cc21` (racemic) [Example 34, N-[5-Cyano-3-(2-ethoxypyridin-3-yl)-2-oxo-1-(phenylsulphonyl)-2,3-dihydro-1H-indol-3-yl]-4-(4-methylpiperazin-1-yl)piperidine-1-carboxamide], for which, in data set [4], the microsomal CLint at 0.5 μM was below 60 µL/min/mg.
`CCCN1CCN(C2CCN(C(=O)NC3(c4cccnc4OCC)C(=O)N(S(=O)(=O)c4ccc(OC)cc4OC)c4ccc(C#N)cc43)CC2)CC1` (racemic) [Example 43, N-[5-Cyano-1-[(2,4-dimethoxyphenyl)sulphonyl]-3-(2-ethoxypyridin-3-yl)-2-oxo-2,3-dihydro-1H-indol-3-yl]-4-(4-propylpiperazin-1-yl)piperidine-1-carboxamide]: in data set [1], the “Ki(h-V1a)/Ki(h-V1b)” value was “+++ (>100)”. The pKi in data set [2] was above 8.00. The “Ki(h-OT)/Ki(h-V1b)” value in data set [3] was “+++ (>50)”.
As for `CCOc1ccccc1S(=O)(=O)N1C(=O)C(NC(=O)N2CCN(C3CCN(C)CC3)CC2)(c2cccnc2OCC)c2cc(C#N)ccc21.O=C(O)C(F)(F)F` (racemic) [Example 3, N-[5-Cyano-1-[(2-ethoxyphenyl)sulphonyl]-3-(2-ethoxypyridin-3-yl)-2-oxo-2,3-dihydro-1H-indol-3-yl]-4-(1-methylpiperidin-4-yl)piperazine-1-carboxamide trifluoroacetate], the “Ki(h-V1a)/Ki(h-V1b)” value in data set [1] is given as “+++ (>100)”. Besides, in data set [2], the pKi was 7.30 to 8.00. Moreover, in data set [3], the “Ki(h-OT)/Ki(h-V1b)” value is “+++ (>50)”.
On to `CCOc1ncccc1C1(NC(=O)N2CCC(C3CCN(CC)CC3)CC2)C(=O)N(S(=O)(=O)c2ccc(OC)cc2OC)c2ccc(C#N)cc21.O=C(O)C(F)(F)F` (single isomer, unassigned) [Example 67B, (−)-N-[5-Cyano-1-[(2,4-dimethoxyphenyl)sulphonyl]-3-(2-ethoxypyridin-3-yl)-2-oxo-2,3-dihydro-1H-indol-3-yl]-1′-ethyl-4,4′-bipiperidine-1-carboxamide trifluoroacetate], for which the “Ki(h-V1a)/Ki(h-V1b)” value in data set [1] is given as “+++ (>100)”. Moreover, the pKi in data set [2] is above 8.00. In data set [3], the “Ki(h-OT)/Ki(h-V1b)” value is listed as “+++ (>50)”.
In the case of `CCOc1ncccc1C1(NC(=O)N2CCN(C3CCN(C)CC3)CC2)C(=O)N(S(=O)(=O)c2ccc(OC)cc2)c2ccc(C#N)cc21` (racemic) [Example 5, N-[5-Cyano-3-(2-ethoxypyridin-3-yl)-1-[(4-methoxyphenyl)sulphonyl]-2-oxo-2,3-dihydro-1H-indol-3-yl]-4-(1-methylpiperidin-4-yl)piperazine-1-carboxamide], the microsomal CLint at 0.5 μM in data set [4] is below 60 µL/min/mg.
Turning to `CCOc1ncccc1C1(NC(=O)N2CCC(C3CCN(C)CC3)CC2)C(=O)N(S(=O)(=O)c2ccc(OC)cc2OC)c2ccc(C#N)cc21.O=C(O)C(F)(F)F` (single isomer, unassigned) [Example 61B, (−)-N-[5-Cyano-1-[(2,4-dimethoxyphenyl)sulphonyl)-3-(2-ethoxypyridin-3-yl)-2-oxo-2,3-dihydro-1H-indol-3-yl]-1′-methyl-4,4′-bipiperidine-1-carboxamide trifluoroacetate], the “Ki(h-V1a)/Ki(h-V1b)” value in data set [1] is recorded as “+++ (>100)”. In data set [3], the “Ki(h-OT)/Ki(h-V1b)” value is on record as “+++ (>50)”.
With `CCOc1ncccc1C1(NC(=O)N2CCC(C3CCN(CC)CC3)CC2)C(=O)N(S(=O)(=O)c2ccc(OC)cc2OC)c2ccc(C#N)cc21.O=C(O)C(F)(F)F` (racemic) [Example 67, N-[5-Cyano-1-[(2,4-dimethoxyphenyl)sulphonyl]-3-(2-ethoxypyridin-3-yl)-2-oxo-2,3-dihydro-1H-indol-3-yl]-1′-ethyl-4,4′-bipiperidine-1-carboxamide trifluoroacetate], the “Ki(h-V1a)/Ki(h-V1b)” value in data set [1] was “+++ (>100)”. This compound also showed a pKi in data set [2] above 8.00. Besides, in data set [3], the “Ki(h-OT)/Ki(h-V1b)” value was “+++ (>50)”.
As to `CCOc1ncccc1C1(NC(=O)N2CCC(C3CCN(C)CC3)CC2)C(=O)N(S(=O)(=O)c2ccc(OC)cc2OC)c2ccc(C#N)cc21` (racemic) [Example 61, N-[5-Cyano-1-[(2,4-dimethoxyphenyl)sulphonyl]-3-(2-ethoxypyridin-3-yl)-2-oxo-2,3-dihydro-1H-indol-3-yl]-1′-methyl-4,4′-bipiperidine-1-carboxamide], the “Ki(h-V1a)/Ki(h-V1b)” value in data set [1] was “+++ (>100)”. Besides, the pKi in data set [2] is above 8.00. Also, the “Ki(h-OT)/Ki(h-V1b)” value in data set [3] was “+++ (>50)”.
